From PubChem BioAssay (NCI)
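Each compound was tested at five concentrations against cells in 96-well plates for 48 hours. TGI: total growth inhibition.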

Legend:
Experiment in all cases: NCI anticancer screen, dose series, 48 h
NCI-H460 lung = tested on: NCI-H460 lung
HL-60(TB) leukemia = tested on: HL-60(TB) leukemia
HOP-62 NSCLC = tested on: HOP-62 NSCLC
EKVX NSCLC = tested on: EKVX NSCLC
U251 CNS = tested on: U251 CNS
SN12C renal = tested on: SN12C renal
HOP-92 NSCLC = tested on: HOP-92 NSCLC
A498 renal = tested on: A498 renal
CAKI-1 renal = tested on: CAKI-1 renal
DU-145 prostate = tested on: DU-145 prostate

| Compound | TGI (NCI-H460 lung) [µM] | TGI (HL-60(TB) leukemia) [µM] | TGI (HOP-62 NSCLC) [µM] | TGI (EKVX NSCLC) [µM] | TGI (U251 CNS) [µM] | TGI (SN12C renal) [µM] | TGI (HOP-92 NSCLC) [µM] | TGI (A498 renal) [µM] | TGI (CAKI-1 renal) [µM] | TGI (DU-145 prostate) [µM] |
| --- | --- | --- | --- | --- | --- | --- | --- | --- | --- | --- |
| CC1=C(C(=O)Nc2ccc([N+](=O)[O-])cc2)C(c2ccccc2F)C(C(=O)Nc2ccc([N+](=O)[O-])cc2)=C(C)N1 | 69.7 | 24.7 | 47.8 | > 100 | 76.6 | 48.3 | 31.1 | 34.9 | 68.9 |  |
| Cc1cc(Cl)ccc1C1OC(=O)c2c1ccc1ccccc21 (centres undefined) | > 100 | > 100 | > 100 | > 100 | > 100 | > 100 | > 100 | > 100 | > 100 |  |
| Nc1n[nH]c(CCc2nc(N)n[nH]2)n1 | > 100 | > 100 | > 100 | > 100 | > 100 | > 100 | > 100 | > 100 | > 100 |  |
| COC(=O)c1ccc(NCc2cc(O)ccc2O)cc1 | 52.2 | 8.58 | 30.9 | 37.1 | 24.5 | 41.2 | 29.1 | 29.7 | 37.4 | 24.8 |
| CC(C)c1cc(OCC(O)CO)cc(C(C)C)c1 (centres undefined) | > 100 | > 100 | > 100 | > 100 | > 100 | > 100 | > 100 | > 100 | > 100 |  |
| COc1ccc(CCc2nccn2C)cc1OC | > 100 | > 100 | > 100 | > 100 |  | > 100 | > 100 | > 100 | > 100 |  |
| Cc1cccc(C(C)(C)C)c1NC(=O)CC1Sc2ccccc2NC1=O (centres undefined) | > 100 | 89.9 | > 100 | > 100 | > 100 | > 100 | 80 | > 100 | > 100 |  |
| Cc1ccccc1N=NC(C(=O)c1ccccc1)C(=O)c1ccccc1 |  | 37.9 | 70.6 | 88.3 | > 100 | 58 | 46.4 | > 100 | 96.6 |  |
| Cc1ccc(NC(=O)C(=O)Cc2cc[n+]([O-])cc2)cc1 | > 100 | > 100 | > 100 | > 100 | > 100 | > 100 | > 100 | > 100 | > 100 |  |
| O=[N+]([O-])c1cccc(C2=NOC3C4CCC(C4)C23)c1 (centres undefined) | > 100 |  | > 100 |  | > 100 | > 100 | > 100 | > 100 |  |  |
| CCC1CN2CCC3(c4ccccc4)CC(C(=O)OC)=CC1C23 (centres undefined) | 32.5 |  | 38.4 | 34.1 | 30 | 30.4 | 25.9 | 33.9 | 33.1 |  |
| COc1ccc2c(c1)CCC(OS(=O)(=O)CC13CCC(CC1=O)C3(C)C)C2=O (centres undefined) | 38.6 | 47.5 | 70.8 | > 100 | 43.1 | 35.2 | 93.2 | 39.1 | > 100 |  |
| O=C(CC1C(=O)c2ccccc2C1=C1C(=O)c2ccccc2C1=O)c1ccccc1 (centres undefined) | > 100 | > 100 | > 100 | > 100 | > 100 | > 100 | > 100 | > 100 | > 100 |  |
| c1ccc2cc3c(cc2c1)nc1ccccn13 |  | > 100 | > 100 | > 100 | > 100 | > 100 | > 100 |  |  | > 100 |
| CCC(=O)N/N=C(\C=C\c1cccc(O)c1)c1sc(Nc2ccc(C)cc2[N+](=O)[O-])nc1C | > 100 | > 100 | > 100 | > 100 | > 100 | > 100 | 27.5 | > 100 | > 100 |  |
| N#CC1=C(Cl)NC(Cl)=C(C#N)C1c1c(Cl)cccc1Cl | 38.3 | 37.5 | > 100 | > 100 | 48.5 | 79.5 | 80 | > 100 | > 100 |  |
| Cc1cc(N(CCC#N)CCC#N)ccc1C=Nc1ccc(C(=O)NN2C(=O)/C(=C/c3ccc(N(CCC#N)CCC#N)cc3)N=C2c2cc([N+](=O)[O-])ccc2Cl)cc1 | > 100 | > 100 | > 100 | > 100 | > 100 | > 100 | > 100 | > 100 | > 100 |  |
| O=C(/C=C1/Nc2ccc([N+](=O)[O-])cc2NC1O)c1cccc([N+](=O)[O-])c1 (centres undefined) | > 100 | > 100 | > 100 | > 100 | > 100 | > 100 | > 100 | > 100 | > 100 |  |
| O=C(Nc1ccn(CCI)c(=O)n1)c1ccccc1 | > 100 | > 100 | > 100 | > 100 | > 100 | > 100 | > 100 | > 100 | > 100 |  |
